The values that follow come from ChEMBL document CHEMBL3399980, “Synthesis and biological evaluation of novel selective androgen receptor modulators (SARMs). Part I” (Bioorg Med Chem, 2015).

For data set [1], the target named is T1, Androgen receptor (Homo sapiens, UniProt P10275).
T1 sequence (P10275 whole entry): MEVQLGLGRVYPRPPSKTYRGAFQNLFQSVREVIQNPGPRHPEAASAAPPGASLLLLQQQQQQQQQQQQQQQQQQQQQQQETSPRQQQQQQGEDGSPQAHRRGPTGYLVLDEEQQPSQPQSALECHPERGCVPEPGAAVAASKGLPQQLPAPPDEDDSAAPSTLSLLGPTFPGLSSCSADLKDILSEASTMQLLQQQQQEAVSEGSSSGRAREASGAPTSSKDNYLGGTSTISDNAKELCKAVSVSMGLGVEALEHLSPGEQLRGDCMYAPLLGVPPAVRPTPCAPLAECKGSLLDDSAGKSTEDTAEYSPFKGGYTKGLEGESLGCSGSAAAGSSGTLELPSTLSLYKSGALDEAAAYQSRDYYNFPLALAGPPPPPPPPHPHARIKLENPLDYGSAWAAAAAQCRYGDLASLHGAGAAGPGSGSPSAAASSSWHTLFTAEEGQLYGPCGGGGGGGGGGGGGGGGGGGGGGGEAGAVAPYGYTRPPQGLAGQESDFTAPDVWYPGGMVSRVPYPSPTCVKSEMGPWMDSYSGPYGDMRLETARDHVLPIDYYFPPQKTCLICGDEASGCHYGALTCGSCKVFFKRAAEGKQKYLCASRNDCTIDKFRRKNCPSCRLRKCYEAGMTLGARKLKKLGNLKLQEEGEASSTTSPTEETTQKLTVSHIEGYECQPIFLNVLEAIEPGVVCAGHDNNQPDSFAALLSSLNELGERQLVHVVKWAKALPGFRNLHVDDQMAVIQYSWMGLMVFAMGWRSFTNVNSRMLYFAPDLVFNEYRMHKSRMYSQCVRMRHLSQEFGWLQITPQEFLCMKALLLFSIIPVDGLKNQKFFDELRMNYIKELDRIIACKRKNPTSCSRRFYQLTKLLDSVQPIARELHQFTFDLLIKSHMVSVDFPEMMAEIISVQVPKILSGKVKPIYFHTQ
As to the kind of experiment: Displacement of [3H]mibolerone from androgen receptor (unknown origin) after 3 hrs.

Data set [2] deals with T1, Androgen receptor. As to the kind of experiment: Modulation of androgen receptor (unknown origin) expressed in Cos7 cells assessed as luciferase activity after 24 hrs. Format: cell-based, COS-7.
The subject of data set [3] is Rattus norvegicus. As to the kind of experiment: Induction of sexual behavior in castrated male CD(SD)IGS rat assessed as pseudopregnancy rate in female rat at 5 mg/kg, po bid measured on day 21 after first treatment (reference value: 0%). In kind it is functional.
Data set [4] concerns Rattus norvegicus. As to the kind of experiment: Toxicity in male CD(SD)IGS rat assessed as effect on seminal vesicle weight at 1.5 mg/kg, po bid for 4 days by Hershberger assay. Set-up: dose 1.5 mg/kg, route oral. Format: organism-based. Conditions: in vivo, 96 h; call rule not given here.
Data set [5] deals with Rattus norvegicus. The data set can be described thus: Induction of levator ani muscle weight in male CD(SD)IGS rat at 1.5 mg/kg, po bid for 4 days by Hershberger assay. Format: functional.
Data set [6] deals with Rattus norvegicus. The data set can be described thus: Induction of sexual behavior in castrated male CD(SD)IGS rat assessed as pseudopregnancy rate in female rat at 1.5 mg/kg, po bid measured on day 21 after first treatment (reference value: 0%). In kind it is functional.
Data set [7] relates to Rattus norvegicus. The data set can be described thus: Toxicity in male CD(SD)IGS rat assessed as effect on prostate weight at 1.5 mg/kg, po bid for 4 days by Hershberger assay. Format: organism-based, Prostate gland. More on the design: dose 1.5 mg/kg, route oral. Conditions: in vivo, 96 h.
In data set [8] the test system is Rattus norvegicus. As to the kind of experiment: Induction of sexual behavior in castrated male CD(SD)IGS rat assessed as pseudopregnancy rate in female rat at 0.5 mg/kg, po bid measured on day 21 after first treatment (reference value: 0%). Format: functional.
For data set [9], the system named is Prostate gland. The data set can be described thus: Drug uptake in male Sprague-Dawley rat prostate at 5 mg/kg, po. Conditions: in vivo. Format: ADME, organism-based. Set-up: dose 5 mg/kg, route oral.
In data set [10] the test system is Rattus norvegicus. The data set can be described thus: Induction of sexual behavior in castrated male CD(SD)IGS rat assessed as pseudopregnancy rate in female rat at 2.5 mg/kg, po bid measured on day 21 after first treatment (reference value: 0%). Format: functional.
In data set [11] the test system is Rattus norvegicus. The data set can be described thus: Induction of sexual behavior in castrated male CD(SD)IGS rat assessed as pseudopregnancy rate in female rat at 3.5 mg/kg, po bid measured on day 21 after first treatment (reference value: 0%). Format: functional.
Data set [12] in a line: Drug uptake in male Sprague-Dawley rat levator ani muscle at 5 mg/kg, po. Set-up: dose 5 mg/kg, route oral. Format: ADME, organism-based. Conditions: in vivo.
The subject of data set [13] is Brain. As to the kind of experiment: Drug uptake in male Sprague-Dawley rat brain at 5 mg/kg, po. In kind it is ADME, organism-based. More on the design: dose 5 mg/kg, route oral. To be noted: in vivo.
The test system of data set [14] is Plasma. The data set can be described thus: Drug uptake in male Sprague-Dawley rat plasma at 5 mg/kg, po. Format: ADME, organism-based. Set-up: dose 5 mg/kg, route oral. To be noted: in vivo.

In data set [1], `O=C(O)c1ccc(N2CCCC2)c2ccccc12` displayed an IC50 of over 10000 nM.

Take `CC[C@H]1CCCN1c1ccc(C#N)c2ccccc12`: the concentration giving a half-maximal response (EC50) in data set [2] turned out to be 0.24 nM. This molecule also gave an IC50 in data set [1] of 1.1 nM.

For `CC(C)[C@H]1CCCN1c1ccc(C#N)c2ccccc12`, the 50% effective concentration (EC50) in data set [2] stood at 2 nM. The IC50 in data set [1] amounted to 1.4 nM.

Take `C[C@H]1C(=O)CCN1c1ccc(C#N)c2ccccc12`: in data set [2], the EC50 is 2.2 nM. The molecule further returned an IC50 in [1] of 37 nM.

As to `C[C@H]1CCCN1c1ccc(C#N)c2ccccc12`, the EC50 in [2] worked out at 0.19 nM. For the same molecule, the 50% inhibitory concentration (IC50) in [1] was found to be 0.84 nM.

As to `C[C@@H]1CCCN1c1ccc(C#N)c2ccccc12`, the EC50 in [2] was over 1000 nM. In data set [1], this molecule returned an IC50 of 20 nM.

As for `N#Cc1ccc(N2CCCC2)c2ccccc12`, the EC50 in [2] was determined as 2.5 nM. The IC50 in data set [1] was found to be 2.5 nM.

As for `O=[N+]([O-])c1ccc(N2CCCC2)c2ccccc12`, the EC50 in data set [2] was found to be 41 nM. In data set [1], this molecule registered an IC50 of 2.5 nM.

In the case of `N#Cc1ccc(N2CCC[C@@H]2C#N)c2ccccc12`, in data set [2], the EC50 came out at 160 nM. In data set [1], this molecule yielded an IC50 of 1 nM.

For `COC(=O)[C@H]1CCN(c2ccc(C#N)c3ccccc23)[C@H]1C`, the EC50 in [2] is over 1000 nM. This molecule came in with an IC50 in [1] of 7.5 nM.

With `C[C@H]1[C@@H](O)CCN1c1ccc(C#N)c2ccccc12`, the Activity in [3] was 80%; in data set [4] it was “Non-toxic”; in [5] it was 150%; in data set [6] it was 70%; in data set [7], “Non-toxic”; in data set [8], 44%. The 50% effective concentration (EC50) in data set [2] amounted to 0.25 nM. In [1], this molecule came in with an IC50 of 2.2 nM.

With `N#Cc1ccc(N2CCC[C@@H]2C(N)=O)c2ccccc12`, in data set [2], the EC50 amounted to 21 nM. For the same molecule, in data set [1], the IC50 is 34 nM.

Take `C[C@H]1[C@H](O)CCN1c1ccc(C#N)c2ccccc12`: the Activity in [3] was 67%; in data set [4], “Non-toxic”; in data set [5], 150%; in data set [6], 67%; in [7] it was “Non-toxic”; in data set [8], 38%. The EC50 in data set [2] is 0.32 nM. The molecule further returned an IC50 in data set [1] of 2.4 nM.

`C[C@H]1[C@@H](CO)CCN1c1ccc(C#N)c2ccccc12`: the concentration for a half-maximal effect (EC50) in [2] is 1.2 nM. In [1], this molecule had an IC50 of 4.1 nM.

With `CC1(C)CCCN1c1ccc(C#N)c2ccccc12`, the EC50 in data set [2] was 21 nM. This molecule also came in with a 50% inhibitory concentration (IC50) in [1] of 7 nM.

Turning to `C[C@H]1[C@@H](C(C)(C)O)CCN1c1ccc(C#N)c2ccccc12`, the Drug uptake result in data set [9], in [12], in [13] and in data set [14] was “Active” in each case. In addition, the Activity in [3] is recorded as 50%; in data set [10], 57%; in data set [4], “Non-toxic”; in [11], 57%; in data set [7] it was “Non-toxic”. In data set [2], the EC50 stood at 45 nM. Moreover, in data set [1], the IC50 is 1.4 nM.
